From US8785692B2, “Substituted phenylamidines and the use thereof as fungicides” (priority 2007, dated 2014)
Where two headings read alike, the source gives them in different places.

Legend:
[1] = logP (neutral / acidic, pH 2.3)
Sphaerotheca fuliginea = experiment: Sphaerotheca test (cucumber) / protective; type: in vivo; settings: Podosphaera fuliginea, 168 h, read-out: efficacy
Method: Sphaerotheca Test (Cucumber)/Protective
Solvent: 49 parts by weight of N,N-dimethylformamide
Emulsifier: 1 part by weight of alkylaryl polyglycol ether
To produce a suitable preparation of active compound, 1 part by weight of active compound is mixed with the stated amounts of solvent and emulsifier, and the concentrate is diluted with water to the desired concentration.
To test for protective activity, young cucumber plants are sprayed with the active compound preparation at the stated application rate. 1 day after the treatment, the plants are inoculated with a spore suspension of Sphaerotheca fuliginea. The plants are then placed in a greenhouse at 70% relative atmospheric humidity and a temperature of 23° C.
Evaluation is carried out 7 days after the inoculation. 0% means an efficacy which corresponds to that of the control, whereas an efficacy of 100% means that no infection is observed.

[2] = cucumber, protective, 500 ppm active compound, evaluation 7 days after inoculation

Row | SMILES | logP [1] | logP ([1]; pH 2.3) | pest or weed control at 500 ppm (Sphaerotheca fuliginea) | pest or weed control at 500 ppm (Sphaerotheca fuliginea; [2])
1 | CCN(C)C=Nc1cc(C)c(/C(C)=N/OCC=C(C)C)cc1C [Compound 33, N′-(2,5-dimethyl-4-{(1E)-N-[(3-methylbut-2-en-1-yl)oxy]ethanimidoyl}phenyl)-N-ethyl-N-methylimidoformamide] | 4.86 | 2.24 | ≥ 70% | 
2 | CCN(C)C=Nc1cc(C)c(/C(C)=N/OCCOc2cccc(C(F)(F)F)c2)cc1C [Compound 34, N′-{2,5-dimethyl-4-[(1E)-N-{2-[3-(trifluoromethyl)phenoxy]ethoxy}ethan-imidoyl]phenyl}-N-ethyl-N-methylimidoformamide] | 5.28 | 2.59 |  | ≥ 70%
3 | CCN(C)C=Nc1cc(C)c(/C(C)=N/OCc2c(C)noc2C)cc1C [Compound 36, N′-(4-{(1E)-N-[(3,5-dimethylisoxazol-4-yl)methoxy]ethanimidoyl}-2,5-dimethylphenyl)-N-ethyl-N-methylimidoformamide] | 3.63 | 1.68 |  | ≥ 70%
4 | CCCO/N=C(\C)c1cc(C)c(N=CN(C)CC)cc1C [Compound 37, N′-{4-[(1E)-N-(n-propoxy)ethanimidoyl]-2,5-dimethylphenyl}-N-ethyl-N-methylimidoformamide] | 4.43 | 1.9 |  | ≥ 70%
5 | CCN(C)C=Nc1cc(C)c(/C=N/OC(C)(C)C)cc1C [Compound 39, N′-{4-[(E)-(tert-butoxyimino)methyl]-2,5-dimethylphenyl}-N-ethyl-N-methylimidoformamide] | 4.98 | 2.11 | ≥ 70% | 
6 | CCN(C)C=Nc1cc(C)c(/C=N/OC(C)C)cc1C [Compound 40, N-ethyl-N′-{4-[(E)-(isopropoxyimino)methyl]-2,5-dimethylphenyl}-N-methylimidoformamide] | 4.41 | 1.76 |  | ≥ 70%
